In data set [1] the test system is VSMC. Nature of the data set: Inhibition of isoproterenol-induced PKA substrate phosphorylation in Wistar rat VSMCs at 10 uM preincubated for 60 mins followed by ISO stimulation and measured upto 30 mins by Western blot analysis. In kind it is cell-based. The conditions noted are these: time 90.0 min. A general note: A western blot detects proteins with antibodies after separation by electrophoresis.

For data set [2], the system named is VSMC. The data set can be described thus: Activation of PKA substrate phosphorylation in isoproterenol-induced Wistar rat VSMCs at 50 uM preincubated for 60 mins followed by ISO stimulation and measured upto 30 mins by Western blot analysis. The note with it: filed as activator, time 90.0 min. The format is cell-based.
Data set [3] has as its target T1, Protein phosphatase 1 regulatory subunit 12A (Rattus norvegicus) (UniProt Q10728).
T1 sequence (whole entry): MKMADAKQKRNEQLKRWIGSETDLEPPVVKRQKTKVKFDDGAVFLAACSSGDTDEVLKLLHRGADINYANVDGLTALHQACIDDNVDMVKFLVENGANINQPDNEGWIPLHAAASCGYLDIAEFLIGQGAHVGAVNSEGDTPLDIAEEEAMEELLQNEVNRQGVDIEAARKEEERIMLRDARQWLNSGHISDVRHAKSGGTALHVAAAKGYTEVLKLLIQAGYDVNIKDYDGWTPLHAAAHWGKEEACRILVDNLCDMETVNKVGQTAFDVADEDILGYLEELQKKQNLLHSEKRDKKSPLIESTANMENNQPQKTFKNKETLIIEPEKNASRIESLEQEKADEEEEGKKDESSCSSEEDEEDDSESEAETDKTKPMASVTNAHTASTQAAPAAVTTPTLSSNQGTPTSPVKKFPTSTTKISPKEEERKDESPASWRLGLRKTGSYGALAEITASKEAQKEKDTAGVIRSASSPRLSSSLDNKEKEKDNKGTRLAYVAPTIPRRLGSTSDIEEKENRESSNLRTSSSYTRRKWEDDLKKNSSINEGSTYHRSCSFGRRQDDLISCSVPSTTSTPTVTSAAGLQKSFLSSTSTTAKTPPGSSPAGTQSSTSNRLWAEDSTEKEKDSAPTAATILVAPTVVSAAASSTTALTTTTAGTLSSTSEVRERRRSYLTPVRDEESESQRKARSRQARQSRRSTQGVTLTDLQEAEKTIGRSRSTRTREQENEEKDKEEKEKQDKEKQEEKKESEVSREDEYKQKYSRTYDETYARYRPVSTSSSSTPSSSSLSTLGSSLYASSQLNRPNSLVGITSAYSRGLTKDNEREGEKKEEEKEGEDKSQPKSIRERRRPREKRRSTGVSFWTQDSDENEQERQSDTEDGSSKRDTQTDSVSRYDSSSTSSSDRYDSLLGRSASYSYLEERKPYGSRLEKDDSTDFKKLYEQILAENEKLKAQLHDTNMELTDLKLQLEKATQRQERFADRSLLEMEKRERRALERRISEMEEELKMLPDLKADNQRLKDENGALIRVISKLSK
Nature of the data set: Activation of MYTP1 phosphorylation at Ser695 residue in phenylephrine-stimulated Wistar rat VSMCs at 50 uM preincubated for 60 mins followed by phenylephrine stimulation and measured upto 30 mins by Western blot analysis. In kind it is cell-based. The conditions noted are these: VSMC, filed as activator, time 90.0 min.

In data set [4] the test system is VSMC. Nature of the data set: Inhibition of isoproterenol-induced AKT phosphorylation at Ser473 residue in Wistar rat VSMCs at 50 uM preincubated for 60 mins followed by ISO stimulation and measured upto 30 mins by Western blot analysis. In kind it is cell-based. The conditions noted are these: time 90.0 min.
A further data set deals with B16-F10. The data set can be described thus: Activation of PKA substrate phosphorylation in mouse B16-F10 cells incubated for 60 mins by Western blot analysis. The note with it: filed as activator. The format is cell-based.
In data set [5] the test system is VSMC. Nature of the data set: Activation of HSP90 phosphorylation in Wistar rat VSMCs at 50 uM incubated for 60 mins by Western blot analysis. The conditions noted are these: filed as activator. The format is cell-based.
For data set [6], the system named is VSMC. The data set can be described thus: Inhibition of phenylephrine-induced MLC phosphorylation at Ser19 residue in Wistar rat VSMCs at 50 uM preincubated for 60 mins followed by phenylephrine stimulation and measured upto 30 mins by Western blot analysis. The format is cell-based. The conditions noted are these: time 90.0 min.
The test system of data set [7] is VSMC. Nature of the data set: Inhibition of isoproterenol-induced AKT phosphorylation at Thr308 residue in Wistar rat VSMCs at 50 uM preincubated for 60 mins followed by ISO stimulation and measured upto 30 mins by Western blot analysis. In kind it is cell-based. The note with it: time 90.0 min.
Data set [8] relates to VSMC. Nature of the data set: Activation of PKA substrate phosphorylation in Wistar rat VSMCs incubated for 60 mins by Western blot analysis. In kind it is cell-based. The conditions noted are these: filed as activator, dose 5-50 µM, DDE = dose-dependent effect.
Data set [9] addresses T1, Protein phosphatase 1 regulatory subunit 12A (Rattus norvegicus). Nature of the data set: Activation of MYTP1 phosphorylation at Ser668 residue in Wistar rat VSMCs at 50 uM incubated for 60 mins by Western blot analysis. The conditions noted are these: VSMC, filed as activator. In kind it is cell-based.
For data set [10], the system named is VSMC. The data set can be described thus: Cytotoxicity against Wistar rat VSMCs assessed as reduction in cell viability at 50 uM incubated for 48 hrs by MTT assay. The format is toxicity, cell-based.
Data set [11] can be described thus: Inhibition of recombinant human full length PI3K p110alpha/[…] alpha activity assessed as PIP3 generation using PI(4,5)P2 (PIP2) as substrate incubated for 3 hrs by competitive binding based colorimetric analysis.
The target in data set [12] is cAMP-dependent protein kinase (PKA) (Homo sapiens) (UniProt P22694+P17612+P22612). Nature of the data set: Activation of PKA substrate phosphorylation in HEK293 cells incubated for 60 mins by Western blot analysis. In kind it is cell-based. The note with it: filed as activator.
Data set [13] deals with VSMC. Nature of the data set: Activation of PKA substrate phosphorylation in Wistar rat VSMCs at 10 uM incubated for 60 mins in the presence of LY294002 by Western blot analysis. In kind it is cell-based. The conditions noted are these: filed as activator.
Data set [14] has as its system VSMC. The data set can be described thus: Activation of PKA substrate phosphorylation in isoproterenol-induced Wistar rat VSMCs at 10 uM preincubated for 60 mins followed by isoproterenol stimulation and measured upto 20 mins by Western blot analysis. In kind it is cell-based. The note with it: filed as activator, time 80.0 min.
The subject of data set [15] is VSMC. Nature of the data set: Activation of PKA substrate phosphorylation in Wistar rat VSMCs at 50 uM incubated for 60 mins by Western blot analysis. In kind it is cell-based. The conditions noted are these: filed as activator.
In data set [16] the target is T1, Protein phosphatase 1 regulatory subunit 12A (Rattus norvegicus). Nature of the data set: Activation of MYTP1 phosphorylation at Ser668 residue in phenylephrine-stimulated Wistar rat VSMCs at 50 uM preincubated for 60 mins followed by phenylephrine stimulation and measured upto 30 mins by Western blot analysis. The note with it: VSMC, filed as activator, time 90.0 min. The format is cell-based.

The test system of data set [17] is VSMC. The data set can be described thus: Activation of HSP20 phosphorylation in isoproterenol-induced Wistar rat VSMCs at 50 uM preincubated for 60 mins followed by ISO stimulation and measured upto 30 mins by Western blot analysis. In kind it is cell-based. The conditions noted are these: filed as activator, time 90.0 min.
Data set [18] concerns VSMC. The data set can be described thus: Activation of PKA in isoproterenol-induced Wistar rat VSMCs assessed as fold increase in intracellular cAMP concentration at 50 uM measured 20 mins after ISO stimulation relative to isoproterenol. In kind it is cell-based. The conditions noted are these: filed as activator.
The subject of data set [19] is VSMC. The data set can be described thus: Activation of PKA in isoproterenol-induced Wistar rat VSMCs assessed as fold increase in intracellular cAMP concentration at 10 uM measured 20 mins after ISO stimulation. In kind it is cell-based. The conditions noted are these: filed as activator.
Data set [20] relates to VSMC. Nature of the data set: Activation of PKA substrate phosphorylation in Wistar rat VSMCs at 10 uM incubated for 60 mins by Western blot analysis. The format is cell-based. The conditions noted are these: filed as activator.
Data set [21] relates to VSMC. Nature of the data set: Inhibition of AKT phosphorylation at Ser473 residue in Wistar rat VSMCs at 10 uM measured upto 60 mins by Western blot analysis. In kind it is cell-based.
In data set [22] the test system is VSMC. The data set can be described thus: Activation of PKA substrate phosphorylation in Wistar rat VSMCs at 10 uM incubated for 60 mins in the presence of IBMX by Western blot analysis. The format is cell-based. The conditions noted are these: filed as activator.
For data set [23], the system named is VSMC. The data set can be described thus: Activation of PKA substrate phosphorylation in Wistar rat VSMCs at 100 uM incubated for 60 mins by Western blot analysis. The format is cell-based. The conditions noted are these: filed as activator.
The subject of data set [24] is VSMC. Nature of the data set: Activation of PKA substrate phosphorylation in isoproterenol-induced Wistar rat VSMCs at 100 uM preincubated for 60 mins followed by ISO stimulation and measured upto 30 mins by Western blot analysis. In kind it is cell-based. The note with it: filed as activator, time 90.0 min.
The subject of data set [25] is VSMC. Nature of the data set: Activation of PKA in isoproterenol-induced Wistar rat VSMCs assessed as increase in intracellular cAMP concentration at 100 uM measured 20 mins after ISO stimulation. In kind it is cell-based. The note with it: filed as activator.

This is an account of results in ChEMBL document CHEMBL5137108, “Calofolic Acid-A from Calophyllum scriblitifolium Bark Has Vasorelaxant Activity via Indirect PKA Activation Caused by PI-3 Kinase Inhibition in Rat Vascular Smooth Muscle Cells” (J Nat Prod, 2022).

Activity calls are given as the source filed them. The calls are words filed in the database; no cut-off is given here.

On to `O=S(=O)(NCCNC/C=C/c1ccc(Br)cc1)c1cccc2cnccc12`, for which, in the data set on VSMC [1], the inhibition entry was “Active”.

In the case of `CC[C@H](CC(=O)O)c1c2c(c(O)c3c1O[C@H](C)[C@H](C)C3=O)C=CC(C)(C)O2`, the outcome (with VSMC [2]; in [3]; in the data set on B16-F10; with VSMC [5]; in data set [9]; in [12]) was Active. In addition, the result (with VSMC [13]; with VSMC [14]; in the data set with VSMC [15]; in [16]; in the data set on VSMC [17]) was Active. Besides, the inhibition entry in the data set with VSMC [4], with VSMC [6] and in the data set on VSMC [7] was “Active” in each case. The results for the Activity entry in the data set on VSMC [8] and in the data set with VSMC [10] were “Dde” and 80%, respectively. Besides, the IC50 in data set [11] was determined as 6 µM. Moreover, the fold change (FC) in the data set on VSMC [18] was determined as 2.5.

Consider `O=c1cc(N2CCOCC2)oc2c(-c3ccccc3)cccc12`, for which the fold change (FC) with VSMC [19] came out at 2. The result in the data set with VSMC [20], in the data set with VSMC [14] and with VSMC [22] was Active. In addition, in the data set with VSMC [21], the inhibition entry was “Active”.

As for `CC(C)Cn1c(=O)n(C)c(=O)c2nc[nH]c21`, the result in the data set on VSMC [23], in the data set with VSMC [24], with VSMC [14] and in the data set with VSMC [25] was Active.

By IC50 is commonly meant the concentration needed to halve the response being measured.
